Laboratory results reported in ChEMBL document CHEMBL1629693, “Intracellular concentrations of posaconazole in different compartments of peripheral blood” (Antimicrob Agents Chemother, 2010).

What was measured:
[1] = Drug uptake in human PMNC assessed as increase in intracellular compound concentration by radiometric assay relative to control; type: ADME, cell-based
[2] = Ratio of cellular uptake in alveolar macrophages to plasma of healthy human
[3] = Ratio of cellular uptake in alveolar macrophages to plasma of healthy human at 14 doses of […], twice daily; type: ADME, organism-based
[4] = Ratio of intracellular to extracellular drug uptake in alveolar macrophages of New Zealand white rabbit infected with Mycobacterium bovis at 1 ug/ml in presence of 100% serum; type: ADME, cell-based, Oryctolagus cuniculus; settings: macrophage
[5] = Ratio of intracellular to extracellular drug uptake in alveolar macrophages of New Zealand white rabbit infected with Mycobacterium bovis at 1 ug/ml; type: ADME, cell-based, Oryctolagus cuniculus; settings: macrophage
[6] = Ratio of intracellular to extracellular drug uptake in alveolar macrophages of New Zealand white rabbit infected with Mycobacterium bovis at 1 ug/ml in presence of 5% serum; type: ADME, cell-based, Oryctolagus cuniculus; settings: macrophage
[7] = Ratio of intracellular to extracellular drug uptake in RBC of New Zealand white rabbit infected with Mycobacterium bovis at 1 ug/ml; type: ADME, cell-based, Oryctolagus cuniculus; settings: erythrocyte
[8] = Cellular uptake in PMNC of patient with hematological malignancies at 200 mg administered 3 to 4 times a day measured by liquid chromatography-tandem mass spectroscopy; settings: human, in vivo
[9] = Ratio of intracellular to extracellular cellular uptake in RBC of patient with hematological malignancies at 200 mg administered 3 to 4 times a day measured by liquid chromatography-tandem mass spectroscopy; settings: human, in vivo
[10] = tested on: PBMC; assay: Cellular uptake in PBMC of patient with hematological malignancies at 200 mg administered 3 to 4 times a day measured by liquid chromatography-tandem mass spectroscopy; settings: human, in vivo
[11] = tested on: Plasma; assay: Drug uptake in plasma of patient with hematological malignancies at 200 mg administered 3 to 4 times a day measured by liquid chromatography-tandem mass spectroscopy; settings: human, in vivo
[12] = tested on: PBMC; assay: Ratio of intracellular to extracellular cellular uptake in PBMC of patient with hematological malignancies at 200 mg administered 3 to 4 times a day measured by liquid chromatography-tandem mass spectroscopy; settings: human, in vivo
[13] = Ratio of intracellular to extracellular cellular uptake in PMNC of patient with hematological malignancies at 200 mg administered 3 to 4 times a day measured by liquid chromatography-tandem mass spectroscopy; settings: human, in vivo
[14] = Cellular uptake in RBC of patient with hematological malignancies at 200 mg administered 3 to 4 times a day measured by liquid chromatography-tandem mass spectroscopy; settings: human, in vivo

## C[C@@H](c1ncncc1F)[C@](O)(Cn1cncn1)c1ccc(F)cc1F [VORICONAZOLE]
[1]
  fold change (FC): 8.5

## CCC(C)n1ncn(-c2ccc(N3CCN(c4ccc(OCC5COC(Cn6cncn6)(c6ccc(Cl)cc6Cl)O5)cc4)CC3)cc2)c1=O (stereo not given) [ITRACONAZOLE]
[2]
  Kp: 27.3
[3]
  Kp: 44.3
[4]
  Ratio: 3
[5]
  Ratio: 87.9
[6]
  Ratio: 18
[7]
  Ratio: 90.4

## CC[C@@H]([C@H](C)O)n1ncn(-c2ccc(N3CCN(c4ccc(OC[C@@H]5CO[C@@](Cn6cncn6)(c6ccc(F)cc6F)C5)cc4)CC3)cc2)c1=O [POSACONAZOLE]
[8]
  Drug uptake: 4031 ng/mL
[9]
  Ratio: 0.09
[10]
  Drug uptake: 12764 ng/mL
[11]
  Drug uptake: 603.2 ng/mL
[12]
  Ratio: 22.5
[13]
  Ratio: 7.66
[14]
  Drug uptake: 50.8 ng/mL

## OC(Cn1cncn1)(Cn1cncn1)c1ccc(F)cc1F [FLUCONAZOLE]
[1]
  fold change (FC): 2.2
